Experimental data reported in patent publication US20090047304A1, “Composition For Body Fat Reduction” (priority 2004, published 2009).

Tests used:
[1] = Double-blind 6-week intake test of test capsules with walking exercise; rate of body fat and body weight measured; format: in vivo, human; settings: by intake of astaxanthin, 6 weeks
Procedure: This Hematococcus alga extract was formed into a capsule containing 6 mg of astaxanthin in terms of the free form (test capsule) and used for test. As placebo capsule (control capsule), a capsule containing 0 mg of astaxanthin and having the same shape was used for test.
32 persons to be tested who were healthy women 23-57 years old were divided at random into two groups i.e. test and control groups, each consisting of 16 persons. The allocation of persons to be tested into test and control groups was conducted in a double-blind method not so as to know persons to be tested and persons participated in test the fact that each of persons to be tested belongs to which group.
Each of persons to be tested in test group took two test capsules a day after supper while each of persons in control group took two placebo capsules a day after supper. The intake period of term (test period of term) was 6 weeks. The rate of body fat and body weight were measured at the beginning (0 week) and the completion (6 weeks) of test for all persons. The rate of body fat was measured with a weighing meter [TBF-511, a product of Tanita Co. Ltd.]
Exercise loaded on all persons to be tested in test period of term was walking. The quantity of exercise was determined by a maximum heart rate countering method. […]

[2] = Takahashi et al.; cited from earlier work
[3] = cited from earlier work

CC1=C(/C=C/C(C)=C/C=C/C(C)=C/C=C/C=C(C)/C=C/C=C(C)/C=C/C2=C(C)C(=O)C(O)CC2(C)C)C(C)(C)CC(O)C1=O (stereo not drawn) [astaxanthin, 3,3′-dihydroxy-β, β-carotene-4,4′-dione]
rate of body fat (in words) [1]: decreases
mutagenicity [2]: has not been observed having any mutagenicity
antioxidative action, times as strong as vitamin E ([3]; relative to vitamin E): about 1000 times
antioxidative action, times as strong as β-carotene ([3]; relative to β-carotene): about 40 times
